Experimental data: patent US20070160684A1, “Methods for increasing cancer cell chemosensitivity” (priority 2005, published 2007)
One block for each molecule: values may come before it.

Key:
[1] = tested on: H2AX Ser139 phosphorylation; experiment: Western analysis of H2AX phosphorylation in Pa-4 and Pa-4/HMGA2 cells; type: cell-based; conditions: 4 mM caffeine or 10 μM NU7026 1 hour, then with 1 μM Dox 2 hours
Description: To ascertain whether HMGA2 effects Dox-induced ATM signaling activation, phosphorylation of ATM Ser1981 and H2AX Ser139 was assayed in the presence and absence of Dox (2 μM in ATM assays, 1 μM in H2AX assays). At various timepoints after Dox treatment, cell lysates were removed and subjected to Western analyses using monoclonal anti-phospho-ATM antibodies (Ser1981), polyclonal anti-ATM antibodies (Santa Cruz Biotechnology, Santa Cruz, Calif.), monoclonal anti-phospho-H2AX antibodies ([…]) (Upstate Cell Signaling), or anti-H2AX antibodies. Control Western analyses were performed using monoclonal anti-actin antibodies. […] HeLa and HeLa/HMGA2 cells
(§1) NU7026 (Calbiochem, San Diego, Calif.) was dissolved in DMSO at 5 mM and stored at −20° C. […] Cell lysates were removed and subjected to Western analyses using monoclonal anti-phospho-H2AX (Ser 139) antibodies. Control Western analyses were performed using monoclonal anti-actin antibodies.

H2AX phosphorylation = experiment: Western analysis of H2AX phosphorylation in HS578T and HCC1419 cells; type: cell-based
Description: as §1
Experiments were repeated using HS578T and HCC1419 cells treated with 2 μM rather than 1 μM Dox.

ATM = ATM (Homo sapiens, UniProt Q13315); conditions: reported (Veuger 2003; Willmore 2004); cited from earlier work
ATR = ATR (Homo sapiens, UniProt Q13535); conditions: reported (Veuger 2003; Willmore 2004); cited from earlier work
DNA-PK = DNA-PK (Homo sapiens, UniProt P78527); conditions: reported (Veuger 2003; Willmore 2004); cited from earlier work
[2] = tested on: HeLa and HeLa/HMGA2 cells; experiment: MTT cell viability assay; type: cell-based; conditions: increasing concentrations, 72 hours
Description: HS578T, HCC1419, and CHO cells

Pa-4/HMGA2 cells = experiment: FACS analysis after caffeine and Dox (G2/M, sub-G1); type: cell-based
Description: Pa-4 and Pa-4/HMGA2 cells were seeded at 50-80% confluency in 35 mm dishes and serum starved overnight to synchronize cell cycle. […] Following treatment, cells were fixed in 70% ethanol overnight, stained with 20 μg/ml propidium iodide, and subjected to FACS analysis.
Apoptosis was quantified by assessing sub-G1 cell populations.

Pa-4 cells = conditions: 4 mM caffeine 1 hour, then 1 μM Dox and 4 mM caffeine 48 hours
[3] = tested on: Pa-4 and Pa-4/HMGA2 cells; experiment: MTT cell viability assay; type: cell-based; conditions: Dox 0-7 μM or irinotecan 0-50 μM
[4] = target: Ku80 (80-kDa subunit of the DNA-PK holoenzyme), endogenous in HeLa and HeLa/HMGA2 cells (UniProt P13010); experiment: co-immunoprecipitation with anti-HA antibody from transiently transfected HeLa cells; reference set to 100%
[5] = target: Ku80 (80-kDa subunit of the DNA-PK holoenzyme), endogenous in HeLa and HeLa/HMGA2 cells (UniProt P13010); experiment: co-immunoprecipitation with anti-HA antibody from transiently transfected HeLa cells, Western for Ku80, quantitated and normalized
HeLa cells = experiment: MTT viability of Dox-treated HeLa cells transfected with HMGA2 constructs; type: cell-based; conditions: transient transfection, Dox for 72 hours
Description: FIG. 19: Correlation between HMGA2 binding of Ku80 and chemosensitization towards Dox. HeLa cells were transfected with individual HMGA2 wild type and engineered constructs and allowed to recover overnight prior to reseeding for cell viability assay. Cells were treated with Dox for 72 hours and followed by MTT assays. ** denotes p<0.01.
To elucidate the relevance of HMGA2 complex formation with Ku80/Ku70, the viability of Dox-treated HeLa cells transfected with HMGA2 or its engineered mutants was examined. […] The augmented resistance to Dox, relative to that of vector-transfected HeLa cells, by HMGA2(Δ83-109) and HMGA2(4P/A) mutants may be due to protein-protein interactions arising from the remaining portion of HMGA2.

[6] = tested on: HeLa, HeLa/HMGA2, HeLa/HMGA2(2K/R) cells; experiment: MTT cell viability assay; type: cell-based; conditions: stable expression in HeLa cells, 72 hours
Description: FIG. 14: Association of HMGA2-dependent chemosensitization with HMGA2 SUMOylation. HeLa, HeLa/HMGA2, HeLa/HMGA2(2K/R) cells were subjected to treatment with increasing concentrations of Dox (upper panel) or cisplatin (lower panel) for 72 hours, as indicated. Cell viabilities were assessed using MTT assays. * denotes p<0.05; ** denotes p<0.01.
HMGA2 is a SUMOylation target (Cao, X. and Ann, D. K., unpublished observation). To investigate whether SUMOylation is involved in HMGA2-mediated chemosensitization, an HMGA2 mutant was constructed that carried Lysine to Arginine (Lys→Arg) point mutations at residues 66 and 67. These residues correspond to the SUMOyalation site (FIG. 13). The construct (HMGA2(2K/R)) was generated using previously described HA-HMGA2/pcDNA3.1 (Zentner 2001) as a template in conjunction with GeneEditor™ in vitro Site-Directed Mutagenesis System (Promega) and the mutagenesis primer set forth in SEQ ID NO:14. Desired mutations were confirmed by DNA sequencing analyses.

Ku80 = target: T1, Ku80 (Homo sapiens, UniProt P13010); experiment: Co-immunoprecipitation of HMGA2 constructs with Ku80 in transfected HeLa cells; type: cell-based; conditions: transient transfection of HeLa cells
T1 construct: Co-immunoprecipitation assays were performed following transient transfection of HeLa cells with these constructs; endogenous in cells; host or cells: HeLa, transiently transfected with HA-HMGA2 constructs
Description: FIG. 18: Role of protein-protein and protein-DNA interactions in the HMGA/Ku80/Ku70 interaction. Individual wild type and engineered HMGA2 expression constructs was transfected into HeLa cells. The transfected cells were allowed to recover overnight in fresh medium prior to immunoprecipitation with an anti-HA antibody. Quantitation was done with BioRad Quantity One volume report program. After normalization with transfection efficiency and the expression level of HMGA2 and its mutant, percentage of Ku80/HMGA2 interaction is calculated by designating immunoprecipitated Ku80 with wild type HMGA2 as 100%.
To determine whether HMGA2 directly interacts with either subunit of the DNA-PK complex to dysregulate DNA-PK activation, co-immunoprecipitation assays were conducted using an anti-Ku70 antibody in HeLa and HeLa/HMGA2 cells. Cells were lysed for one hour in RIPA buffer (PBS, 1% NP40, 0.5% sodium deoxycholate, 0.1% SDS) supplemented with PMSF, aprotinin, and sodium orthovanadate immediately before use. The cell lysates were centrifuged at 10,000 rpm for 10 minutes and supernatants were collected. Protein concentrations were determined using Bradford protein assay. […] Samples were then analyzed by Western analyses. […]

Sequence of Ku80 (80-kDa subunit of the DNA-PK holoenzyme), endogenous in HeLa and HeLa/HMGA2 cells (P13010 2-732 limits assumed): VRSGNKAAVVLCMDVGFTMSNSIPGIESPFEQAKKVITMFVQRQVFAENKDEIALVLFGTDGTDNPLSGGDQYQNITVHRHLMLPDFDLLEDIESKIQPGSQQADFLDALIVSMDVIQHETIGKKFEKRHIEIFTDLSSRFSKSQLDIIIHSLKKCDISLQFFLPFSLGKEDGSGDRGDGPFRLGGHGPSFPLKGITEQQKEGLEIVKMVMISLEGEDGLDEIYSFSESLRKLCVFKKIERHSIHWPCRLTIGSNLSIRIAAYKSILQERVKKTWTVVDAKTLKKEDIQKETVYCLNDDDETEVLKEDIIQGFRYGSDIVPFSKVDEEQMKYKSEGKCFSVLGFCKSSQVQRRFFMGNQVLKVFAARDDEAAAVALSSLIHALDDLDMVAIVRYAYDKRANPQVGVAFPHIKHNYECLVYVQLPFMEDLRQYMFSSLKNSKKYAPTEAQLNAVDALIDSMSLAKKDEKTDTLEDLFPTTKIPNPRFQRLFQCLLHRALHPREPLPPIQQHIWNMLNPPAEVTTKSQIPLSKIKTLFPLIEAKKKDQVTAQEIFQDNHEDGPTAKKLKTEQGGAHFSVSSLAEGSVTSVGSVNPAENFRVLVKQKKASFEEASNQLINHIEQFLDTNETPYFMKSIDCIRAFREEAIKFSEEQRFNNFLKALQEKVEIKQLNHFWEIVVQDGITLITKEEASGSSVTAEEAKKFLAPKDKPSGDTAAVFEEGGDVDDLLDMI
T1 sequence (P13010 2-732 limits assumed): as above
T1 sequence (P12956 2-609 partner limits assumed): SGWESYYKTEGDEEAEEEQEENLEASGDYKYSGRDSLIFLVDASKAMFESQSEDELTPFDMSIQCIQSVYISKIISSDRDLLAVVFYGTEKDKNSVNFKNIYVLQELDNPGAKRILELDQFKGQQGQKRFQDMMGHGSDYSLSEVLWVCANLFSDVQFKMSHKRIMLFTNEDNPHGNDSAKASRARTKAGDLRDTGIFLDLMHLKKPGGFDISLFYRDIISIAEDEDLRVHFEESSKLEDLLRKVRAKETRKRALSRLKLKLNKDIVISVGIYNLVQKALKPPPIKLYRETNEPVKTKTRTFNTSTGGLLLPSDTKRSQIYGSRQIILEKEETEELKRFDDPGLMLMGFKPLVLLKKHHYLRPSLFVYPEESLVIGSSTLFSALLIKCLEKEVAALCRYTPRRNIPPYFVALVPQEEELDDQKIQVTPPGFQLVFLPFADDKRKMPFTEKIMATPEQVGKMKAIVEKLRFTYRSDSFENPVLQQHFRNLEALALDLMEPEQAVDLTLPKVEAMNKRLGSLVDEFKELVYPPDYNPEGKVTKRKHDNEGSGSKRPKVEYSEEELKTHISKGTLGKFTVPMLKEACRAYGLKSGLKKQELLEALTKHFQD
Sequence of ATM (Q13315 whole entry, species assumed): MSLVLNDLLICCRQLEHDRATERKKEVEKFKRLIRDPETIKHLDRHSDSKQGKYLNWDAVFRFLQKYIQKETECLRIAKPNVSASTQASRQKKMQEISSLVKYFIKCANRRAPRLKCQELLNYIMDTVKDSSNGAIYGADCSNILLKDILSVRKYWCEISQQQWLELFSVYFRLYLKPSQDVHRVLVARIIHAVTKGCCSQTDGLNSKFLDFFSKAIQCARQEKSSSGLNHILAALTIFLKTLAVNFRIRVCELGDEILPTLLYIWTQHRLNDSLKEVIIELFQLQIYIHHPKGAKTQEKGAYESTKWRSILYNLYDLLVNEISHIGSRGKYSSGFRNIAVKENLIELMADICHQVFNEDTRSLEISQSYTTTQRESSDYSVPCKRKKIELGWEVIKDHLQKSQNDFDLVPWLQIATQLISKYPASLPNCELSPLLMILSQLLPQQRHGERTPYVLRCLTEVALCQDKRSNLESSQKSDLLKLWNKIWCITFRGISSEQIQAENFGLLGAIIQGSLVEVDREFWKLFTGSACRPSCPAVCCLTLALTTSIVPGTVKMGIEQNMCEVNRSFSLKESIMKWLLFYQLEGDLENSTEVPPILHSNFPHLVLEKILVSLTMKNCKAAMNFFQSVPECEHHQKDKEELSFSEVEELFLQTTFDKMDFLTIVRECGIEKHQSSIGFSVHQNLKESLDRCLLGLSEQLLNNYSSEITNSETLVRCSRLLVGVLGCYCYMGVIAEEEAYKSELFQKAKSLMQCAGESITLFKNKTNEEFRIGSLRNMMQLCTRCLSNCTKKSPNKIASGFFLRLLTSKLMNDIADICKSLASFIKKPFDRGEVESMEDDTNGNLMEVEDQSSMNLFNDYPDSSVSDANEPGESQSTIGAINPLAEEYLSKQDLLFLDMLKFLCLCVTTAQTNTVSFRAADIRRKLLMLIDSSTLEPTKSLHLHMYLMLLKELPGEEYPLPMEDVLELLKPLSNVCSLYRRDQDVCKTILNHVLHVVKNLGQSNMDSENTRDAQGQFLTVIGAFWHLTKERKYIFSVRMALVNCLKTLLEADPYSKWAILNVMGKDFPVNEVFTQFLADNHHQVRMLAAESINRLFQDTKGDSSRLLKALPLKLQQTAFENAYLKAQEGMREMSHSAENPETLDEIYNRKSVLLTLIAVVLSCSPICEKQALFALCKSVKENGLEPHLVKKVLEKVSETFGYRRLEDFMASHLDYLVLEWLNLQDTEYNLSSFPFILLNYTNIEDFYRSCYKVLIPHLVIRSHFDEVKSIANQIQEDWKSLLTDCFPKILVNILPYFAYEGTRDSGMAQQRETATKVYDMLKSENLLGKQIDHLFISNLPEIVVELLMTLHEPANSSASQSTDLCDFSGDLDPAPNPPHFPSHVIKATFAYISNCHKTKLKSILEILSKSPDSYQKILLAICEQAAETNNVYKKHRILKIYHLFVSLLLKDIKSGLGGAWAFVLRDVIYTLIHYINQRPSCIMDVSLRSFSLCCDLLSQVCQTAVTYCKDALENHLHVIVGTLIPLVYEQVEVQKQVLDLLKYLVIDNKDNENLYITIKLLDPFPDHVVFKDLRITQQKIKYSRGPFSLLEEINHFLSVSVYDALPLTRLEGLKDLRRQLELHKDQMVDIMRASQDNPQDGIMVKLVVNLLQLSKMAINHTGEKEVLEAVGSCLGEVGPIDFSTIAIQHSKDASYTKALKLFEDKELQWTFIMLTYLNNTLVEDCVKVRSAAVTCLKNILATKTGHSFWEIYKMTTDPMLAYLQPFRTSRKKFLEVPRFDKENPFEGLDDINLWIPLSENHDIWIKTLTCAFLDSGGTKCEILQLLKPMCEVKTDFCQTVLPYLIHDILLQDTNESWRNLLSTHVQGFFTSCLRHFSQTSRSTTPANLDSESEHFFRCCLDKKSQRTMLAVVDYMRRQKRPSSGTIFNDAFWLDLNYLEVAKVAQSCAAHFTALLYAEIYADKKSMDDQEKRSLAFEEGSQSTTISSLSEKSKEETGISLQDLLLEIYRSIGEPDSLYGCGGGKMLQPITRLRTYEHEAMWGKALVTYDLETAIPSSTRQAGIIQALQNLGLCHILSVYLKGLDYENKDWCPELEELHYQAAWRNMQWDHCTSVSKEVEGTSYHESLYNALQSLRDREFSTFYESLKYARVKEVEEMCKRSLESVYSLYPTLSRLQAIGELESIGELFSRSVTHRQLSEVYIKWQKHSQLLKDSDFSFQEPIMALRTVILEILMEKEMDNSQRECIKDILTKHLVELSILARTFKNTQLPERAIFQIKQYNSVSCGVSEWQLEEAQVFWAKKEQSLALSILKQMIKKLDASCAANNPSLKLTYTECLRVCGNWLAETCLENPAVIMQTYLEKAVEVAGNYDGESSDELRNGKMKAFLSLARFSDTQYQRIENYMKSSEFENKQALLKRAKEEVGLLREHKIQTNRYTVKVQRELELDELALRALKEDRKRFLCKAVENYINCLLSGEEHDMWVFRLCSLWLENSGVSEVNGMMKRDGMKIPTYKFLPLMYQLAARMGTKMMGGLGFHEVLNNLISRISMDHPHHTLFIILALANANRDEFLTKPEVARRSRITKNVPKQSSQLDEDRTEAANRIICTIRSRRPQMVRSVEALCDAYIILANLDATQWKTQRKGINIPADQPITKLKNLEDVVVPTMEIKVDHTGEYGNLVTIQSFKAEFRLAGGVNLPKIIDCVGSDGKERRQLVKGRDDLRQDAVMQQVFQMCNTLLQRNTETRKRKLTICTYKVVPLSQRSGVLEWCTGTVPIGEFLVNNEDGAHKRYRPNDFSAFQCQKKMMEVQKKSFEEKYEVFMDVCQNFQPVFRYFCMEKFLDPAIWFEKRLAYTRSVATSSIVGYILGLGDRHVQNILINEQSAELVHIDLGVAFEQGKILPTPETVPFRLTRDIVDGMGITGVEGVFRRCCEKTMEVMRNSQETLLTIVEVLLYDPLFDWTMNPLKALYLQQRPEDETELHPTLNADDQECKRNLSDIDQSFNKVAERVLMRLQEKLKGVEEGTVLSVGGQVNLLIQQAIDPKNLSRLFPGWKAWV

Molecule: O=c1cc(N2CCOCC2)oc2c1ccc1ccccc12 [NU7026]
effect of pre-treatment on basal or Dox-induced H2AX phosphorylation ([1]; Pa-4/HMGA2 cells): little or no effect | effect of pre-treatment on Dox-induced H2AX phosphorylation ([1]; Pa-4 cells): attenuated | effect of pre-treatment on Dox-induced H2AX phosphorylation (H2AX phosphorylation; HCC1419 cells, 2 μM Dox): downregulated | effect of pre-treatment on H2AX phosphorylation (H2AX phosphorylation; HS578T cells, with or without 2 μM Dox): did not decrease H2AX phosphorylation in either the presence or absence of Dox treatment | activity against ATM (ATM): inactive | activity against ATR (ATR): inactive | selectivity for DNA-PK (DNA-PK): highly selective for DNA-PK

Molecule: CC(=O)O[C@H]1C(=O)[C@@]2(C)[C@H]([C@H](OC(=O)c3ccccc3)[C@]3(O)C[C@H](OC(=O)[C@H](O)[C@@H](NC(=O)c4ccccc4)c4ccccc4)C(C)=C1C3(C)C)[C@]1(OC(C)=O)CO[C@@H]1C[C@@H]2O [Taxol]
Taxol-induced cell growth inhibition, HeLa versus HeLa/HMGA2 [2]: no substantial difference in the response to Taxol between HeLa and HeLa/HMGA2 cells

Molecule: Cn1c(=O)c2c(ncn2C)n(C)c1=O [caffeine]
cell cycle distribution / cells in G2/M, single agent (Pa-4/HMGA2 cells; 4 mM caffeine or 1 μM Dox, 48 hours): decreased the number of cells in G2/M | apoptosis with both caffeine and Dox (Pa-4/HMGA2 cells; caffeine with Dox): apoptosis levels greater than those observed after treatment with caffeine or Dox alone | effect on Dox-induced G2/M arrest (Pa-4 cells): greatly reduced Dox-induced G2/M arrest

Molecule: CCc1c2c(nc3ccc(OC(=O)N4CCC(N5CCCCC5)CC4)cc13)-c1cc3c(c(=O)n1C2)COC(=O)[C@]3(O)CC [irinotecan]
difference in decrease of viability between Pa-4/HMGA2 and Pa-4 cells ([3]; 72 hours): little difference observed between the two cell types | cell viability / growth inhibition ([3]; 72 hours after treatment): dose-dependent growth inhibition in both cell types

percentage of Ku80/HMGA2 interaction [4]: 100%
Molecule: HA-HMGA2 (HA-tagged wild-type high-mobility group A2 protein expressed from pcDNA3.1/HA-HMGA2 in HeLa cells) (from UniProt P52926 1-109)

decrease of the interaction with Ku80 against wild-type HMGA2 [5]: > 70%
Molecule: HA-HMGA2(Δ66-109) (from UniProt P52926 1-65)

decrease of the interaction with Ku80 against wild-type HMGA2 [5]: > 50%
Molecule: HA-HMGA2(Δ83-109) (from UniProt P52926 1-82)

B1: HMGA2(Δ83-109): truncated HMGA2 carrying deletion of the C-terminus (protein, UniProt P52926 1-82, looked up, fragment)
chain: MSARGEGAGQPSTSAQGQPAAPAPQKRGRGRPRKQQQEPTGEPSPKRPRGRPKGSKNKSPSKAAQKKAEATGEKRPRGRPRK
modifications: HA tag
notes: truncated HMGA2 carrying deletion of the C-terminus
sensitivity of transfected HeLa cells to Dox (HeLa cells): relatively greater resistance to Dox-treatment

B2: HMGA2(2K/R): SUMOylation-defective HMGA2 mutant with Lys→Arg point mutations at residues 66 and 67 (protein, UniProt P52926 2-109, looked up, variant K66R K67R)
High mobility group protein …: SARGEGAGQPSTSAQGQPAAPAPQKRGRGRPRKQQQEPTGEPSPKRPRGRPKGSKNKSPSKAAQRRAEATGEKRPRGRPRKWPQQVVQKKPAQEETEETSSQESAEED
effect on cytotoxicity elicited by Dox [6]: partially reversed the cytotoxicity | effect on cytotoxicity elicited by cisplatin [6]: partially reversed the cytotoxicity

B3: HMGA2(Δ1-24): truncated HMGA2 carrying deletion of the N-terminus (protein, UniProt P52926 25-109, looked up, fragment)
chain: QKRGRGRPRKQQQEPTGEPSPKRPRGRPKGSKNKSPSKAAQKKAEATGEKRPRGRPRKWPQQVVQKKPAQEETEETSSQESAEED
modifications: HA tag
notes: truncated HMGA2 carrying deletion of the N-terminus
ability to interact with Ku80 (Ku80): retained the full ability to interact with Ku80 | sensitivity of transfected HeLa cells to Dox (HeLa cells): enhanced the sensitivity of HeLa cells to Dox

B4: HMGA2(4P/A): HMGA2 mutant with four Pro→Ala mutations at amino acid positions 48, 52, 76, and 80 (protein)
chain: MSARGEGAGQPSTSAQGQPAAPAPQKRGRGRPRKQQQEPTGEPSPKRARGRAKGSKNKSPSKAAQKKAEATGEKRARGRARKWPQQVVQKKPAQEETEETSSQESAEED
modifications: left off: small tags and cut ends
ability to interact with Ku80 (Ku80): almost completely abrogated the binding of HMGA2 to Ku80 | sensitivity of transfected HeLa cells to Dox (HeLa cells): relatively greater resistance to Dox-treatment
